# Assay results as given in paper PMC9097457 (The Journal of Biological Chemistry, 2022).
# Structures can show the parent of a compound that is named as a salt.
# Assays:
# adenylate kinase = assay: Conversion of [3H]-dAMP to [3H]-dATP in isolated heart mitochondria; type: biochemical, rat
# Protocol: (§1) Thus, we were interested in determining if the dGTP and dATP phosphorylation pathway in isolated mitochondria functioned similarly.
# (§2) [^3H]-dGMP (1 μM) or [^3H]-dAMP (1 μM) was incubated in heart mitochondria as described for Figure 1 for the times shown, and their conversion to [^3H]-dGTP and [^3H]-dATP, respectively, determined in the presence and absence of Ap5A ([…]), a competitive inhibitor of adenylate kinase. Data are shown as a box plot of two independent experiments. The thickness of the lines indicates the spread of the duplicates. Ap5A, P1,P5-di(adenosine-5) pentaphosphate pentasodium salt.
# To measure and compare phosphorylation and kinetics, a stable substrate concentration was necessary and EHNA (5 μM) ([50]) and I-H (2.0 μM) ([49]) were added to all mitochondrial incubations. […] The mitochondria were incubated in vitro for up to 2 h at 37 °C in a shaker bath. At the end of the incubation, reactions were terminated by addition of 10% TCA to an equal volume of incubation mixture (175 μl) and spun in a microcentrifuge to remove precipitates. […] The neutralized and filtered supernatants were analyzed by ultra high pressure liquid chromatography (UPLC). Radioactivity was determined from aliquots of each sample and processed through a Beckman Coulter multipurpose liquid scintillation counter (model 6500).
# heart mitochondria = assay: Conversion of [3H]-dGMP to [3H]-dGTP in isolated heart mitochondria; type: biochemical, rat
# Protocol: as §1, §2
# (§3) To measure and compare phosphorylation and kinetics, a stable substrate concentration was necessary and EHNA (5 μM) ([50]) and I-H (2.0 μM) ([49]) were added to all mitochondrial incubations. […] The mitochondria were incubated in vitro for up to 2 h at 37 °C in a shaker bath. At the end of the incubation, reactions were terminated by addition of 10% TCA to an equal volume of incubation mixture (175 μl) and spun in a microcentrifuge to remove precipitates. The supernatant was neutralized with AG 11 A8 resin and filtered through a […] nylon syringe filter. The neutralized and filtered supernatants were analyzed by ultra high pressure liquid chromatography (UPLC). Radioactivity was determined from aliquots of each sample and processed through a Beckman Coulter multipurpose liquid scintillation counter (model 6500).
# [1] = molecular target: T1, adenosine deaminase (ADA) (Rattus norvegicus, UniProt Q920P6)
# T1 sequence (Q920P6 1-352): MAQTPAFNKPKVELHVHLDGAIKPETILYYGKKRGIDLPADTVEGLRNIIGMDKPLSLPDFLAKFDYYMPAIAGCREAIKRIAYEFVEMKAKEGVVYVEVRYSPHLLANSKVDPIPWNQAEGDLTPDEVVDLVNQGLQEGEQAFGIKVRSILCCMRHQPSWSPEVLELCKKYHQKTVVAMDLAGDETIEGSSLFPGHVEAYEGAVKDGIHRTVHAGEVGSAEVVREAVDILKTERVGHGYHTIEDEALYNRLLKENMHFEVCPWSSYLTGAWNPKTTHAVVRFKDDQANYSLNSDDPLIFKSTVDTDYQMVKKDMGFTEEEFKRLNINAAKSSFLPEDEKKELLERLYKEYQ
# Protocol: (§6) To measure and compare phosphorylation and kinetics, a stable substrate concentration was necessary and EHNA (5 μM) ([50]) and I-H (2.0 μM) ([49]) were added to all mitochondrial incubations. […] The mitochondria were incubated in vitro for up to 2 h at 37 °C in a shaker bath. At the end of the incubation, reactions were terminated by addition of 10% TCA to an equal volume of incubation mixture (175 μl) and spun in a microcentrifuge to remove precipitates. The supernatant was neutralized with AG 11 A8 resin and filtered through a 0.2-μM nylon syringe filter. The neutralized and filtered supernatants were analyzed by ultra high pressure liquid chromatography (UPLC). Radioactivity was determined from aliquots of each sample and processed through a Beckman Coulter multipurpose liquid scintillation counter (model 6500).
# [2] = molecular target: T2, deoxyguanosine kinase (dGK) (Rattus norvegicus, UniProt A0A0G2K478); assay: Tissue-specific phosphorylation of [3H]-dG, [3H]-dA and [3H]-ETV in isolated mitochondria; type: biochemical; conditions: heart mitochondria
# T2 sequence (A0A0G2K478 with tags, fused parts or gaps): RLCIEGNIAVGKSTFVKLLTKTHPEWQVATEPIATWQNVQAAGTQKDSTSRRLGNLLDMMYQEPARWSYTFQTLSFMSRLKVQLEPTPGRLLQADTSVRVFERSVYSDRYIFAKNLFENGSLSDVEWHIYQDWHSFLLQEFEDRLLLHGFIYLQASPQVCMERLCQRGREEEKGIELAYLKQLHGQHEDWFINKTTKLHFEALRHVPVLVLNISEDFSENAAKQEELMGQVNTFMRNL
# Protocol: As noted in the Experimental procedures, these were added together to determine total phosphorylation.
# as §3
# (§4) Extent of phosphorylation was measured and analyzed by UPLC (Agilent 1290) with a reverse-phase C18 column (Zorbax Eclipse Plus C18; 3.0 × 150 mm, 1.8 micron) coupled with an inline diode array to detect UV signal at 254 nm and to an inline liquid scintillation counter (β-Ram) to quantitate radioactivity.
# (§5) The radioactivity in each of these peaks was quantitated and totaled to provide the total amount of radioactivity in the phosphorylated products for each labeled precursor. This total was divided by the specific radioactivity of the precursor and expressed as pmol/mg protein/hr. The Kms were calculated from Lineweaver–Burk plots 1/Vo=Km/Vmax[S]+1/Vmax
# [3] = molecular target: T2, deoxyguanosine kinase (dGK); assay: Inhibition of [3H]-dA phosphorylation by competing deoxynucleosides in liver mitochondria; type: biochemical; conditions: IC50 values at 1 μM substrate
# Protocol: as §3, §5
# [4] = molecular target: T2, deoxyguanosine kinase (dGK); assay: Kinetic analysis of [3H]-dG and [3H]-ETV phosphorylation and cross inhibition in heart mitochondria; type: biochemical; conditions: 40 μM ETV, data of Figure 4
# Protocol: as §3, §5
# isolated rat heart [5] = assay: Phosphorylation of [3H]-ETV, [3H]-dG and [3H]-dA in the isolated perfused rat heart (Langendorff)
# Protocol: The phosphorylation of [^3H]-dG, [^3H]-dA, and [^3H]-ETV in isolated mitochondria depends on the activity of the mitochondrial dGK. To determine the degree of phosphorylation in a whole tissue, which would include the activity of the cytosolic dCK, we utilized an isolated rat heart Langendorff retrograde perfusion model. The breakdown and phosphorylation of [^3H]-ETV, [^3H]-dG, and [^3H]-dA (0.5 μM each) was measured in the perfusates and in the hearts after 60 min of perfusion (Fig. 9, A and B). […] However, the heart was still able to take up and maintain a small amount of dG to generate 0.18 ± 0.05 pmol/mg wet heart of phosphorylated dG during the 60-min perfusion. […] Despite the loss of [^3H]-dA from the perfusate, the heart took up and maintained enough dA to produce 0.48 ± 0.08 pmol/mg wet heart of phosphorylated [^3H]-dA products at 60 min (Fig. 9B). […] Note that [^3H]-dG and [^3H]-dG catabolites equilibrate rapidly between the perfusion buffer and the heart, while the phosphorylated forms of [^3H]-dG are retained solely in the heart tissue.
# Figure 9 [^3H]-ETV and [^3H]-dG phosphorylation in a perfused rat heart. Rat hearts were removed and perfused using the Langendorff method for 1 h as described in Experimental procedures with 0.5 μM [^3H]-ETV, 0.5 μM [^3H]-dG), or 0.5 μM [^3H]-dA. […] A, the amount of exogenous [^3H]-parent compound in the perfusate as a function of time, plotted as a box plot of three independent experiments. See text for details. B, the amount of phosphorylated [^3H]-ETV, [^3H]-dG, or [^3H]-dA in the heart tissue after 60 min of perfusion with additions as noted in (A). See text for details.
# Rat hearts were perfused by Langendorff retrograde perfusion apparatus with [^3H]-dG, [^3H]-dA, or [^3H]-ETV for 60 min under the conditions previously described ([25], [26], [51]). Perfused hearts were snap frozen into wafers by clamping the heart in liquid nitrogen, and the frozen tissue wafers were stored in −80 °C until processed as previously described for ([24]) UPLC analysis.
# isolated rat heart [6] = assay: Breakdown of the [3H]-parent compound in the perfusate of the isolated perfused rat heart; type: in vitro ADME
# Protocol: To determine the degree of phosphorylation in a whole tissue, which would include the activity of the cytosolic dCK, we utilized an isolated rat heart Langendorff retrograde perfusion model.
# See text for details. […] See text for details.
# Perfused hearts were snap frozen into wafers by clamping the heart in liquid nitrogen, and the frozen tissue wafers were stored in −80 °C until processed as previously described for ([24]) UPLC analysis.
# [7] = molecular target: T3, purine nucleoside phosphorylase (PNP) (Rattus norvegicus, UniProt P85973); conditions: 2.0 μM, kidney mitochondria, 60 min
# T3 sequence (P85973 1-289): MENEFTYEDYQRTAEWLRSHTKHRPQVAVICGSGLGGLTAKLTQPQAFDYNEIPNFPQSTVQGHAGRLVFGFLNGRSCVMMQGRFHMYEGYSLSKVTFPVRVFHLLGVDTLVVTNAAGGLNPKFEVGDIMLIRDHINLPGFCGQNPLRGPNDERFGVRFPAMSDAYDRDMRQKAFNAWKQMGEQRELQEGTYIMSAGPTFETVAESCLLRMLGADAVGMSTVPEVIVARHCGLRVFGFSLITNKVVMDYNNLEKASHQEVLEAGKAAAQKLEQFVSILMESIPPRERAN
# Protocol: as §6
# [8] = molecular target: T2, deoxyguanosine kinase (dGK); assay: Pilot study: effect of 100 μM dG/dA nucleoside analogs on [3H]-dG or [3H]-dA phosphorylation in isolated mitochondria; type: biochemical; conditions: 100 μM analog; [3H]-dG 0.5 μM in liver, kidney, heart, brain mitochondria; [3H]-dA in liver mitochondria; 2 h; + EHNA 5 μM, I-H 2 μM
# Protocol: Immucillin-H (I-H) (2 μM) and EHNA (5 μM) were added to the incubation mixture to prevent the breakdown of substrate by purine nucleoside phosphorylase (PNP) and adenosine deaminase (ADA) activity, respectively.
# as §3, §4, §5
smiles,measurement,setting,value
"Nc1ncnc2c1ncn2[C@@H]1O[C@H](COP(=O)([O-])OP(=O)([O-])OP(=O)([O-])OP(=O)([O-])OP(=O)([O-])OC[C@H]2O[C@@H](n3cnc4c(N)ncnc43)[C@H](O)[C@@H]2O)[C@@H](O)[C@H]1O.[Na+].[Na+].[Na+].[Na+].[Na+] [Ap5A, P1,P5-di(adenosine-5) pentaphosphate pentasodium salt]",effect on conversion of [3H]-dAMP to [3H]-dATP,adenylate kinase; Ap5A 40 μM,inhibited
same,effect on phosphorylation of dGMP,heart mitochondria; Ap5A 40 μM,not inhibited
"CCCCCCC(C(C)O)n1cnc2c(N)ncnc21.Cl (stereo not drawn) [EHNA, erythro-9-(2-Hydroxy-3-nonyl)-adenine hydrochloride]",effect on conversion of [3H]-dA to breakdown products,"[1]; EHNA 5 μM, 60 min",completely prevented this conversion
same,effect on [3H]-dA or [3H]-dG phosphorylation,[2],no effect
"C=C1[C@H](CO)[C@@H](O)C[C@@H]1n1cnc2c(=O)[nH]c(N)nc21 [ETV, entecavir]",inhibition of dA phosphorylation more potent than ETV inhibition of dG phosphorylation,[3],500 fold
same,rate of [3H]-dG phosphorylation to [3H]-dGTP in the presence of inhibitor,[4],12.4 ± 2.0 pmol/mg protein/hr
same,effect on conversion of [3H]-dGMP to [3H]-dGTP,heart mitochondria; ETV 40 μM,no effect
same,phosphorylated product in heart,"isolated rat heart [5]; 0.5 μM labeled compound alone, 60-min perfusion",0.25 ± 0.05 pmol/mg wet heart
same,inhibition of [3H]-dG phosphorylation,"isolated rat heart [5]; 100 μM unlabeled ETV added to [3H]-dG + I-H, 60-min perfusion",82.0 ± 0.7%
same,effect on [3H]-dA phosphorylation,isolated rat heart [5]; ETV 100 μM added to the perfusate,did not appear to inhibit
"O=c1[nH]cnc2c([C@@H]3N[C@H](CO)[C@@H](O)[C@H]3O)c[nH]c12 [I-H, forodesine hydrochloride]",effect on [3H]-dA breakdown,"[1]; Immucillin-H 2.0 μM, 60 min",no effect
same,effect on breakdown of dG in the perfusate,isolated rat heart [6]; I-H 2 μM,prevented most of the breakdown
same,effect on conversion of [3H]-dG to breakdown products,[7],completely prevented this conversion
same,effect on [3H]-dA or [3H]-dG phosphorylation,[2],no effect
"CC(C)OC(=O)OCOP(=O)(CO[C@H](C)Cn1cnc2c(N)ncnc21)OCOC(=O)OC(C)C.O=C(O)/C=C/C(=O)O [TDF, tenofovir disproxil fumarate]",inhibition of the phosphorylation of dA and dG,[8],ETV was shown to be the only dG/dA analog of the eight tested that showed significant inhibition
Nc1ncnc2c1ncn2CCOCP(=O)(O)O [adefovir],inhibition of the phosphorylation of dA and dG,[8],ETV was shown to be the only dG/dA analog of the eight tested that showed significant inhibition
"Nc1ncnc2c1ncn2[C@H]1C[C@H](O)[C@@H](CO)O1 [dA, deoxyadenosine]",stability in heart mitochondria,"[1]; heart mitochondria, initial studies",stable
same,conversion of [3H]-dA to breakdown products,"[1]; mitochondria isolated from kidney, 60 min, no inhibitor",28%
same,parent compound in the perfusate by 60 min,"isolated rat heart [6]; 0.5 μM [3H]-dA, EHNA added",complete loss
same,parent compound remaining in the perfusate by 3 min,"isolated rat heart [6]; 0.5 μM [3H]-dA, EHNA added",47.5%
same,parent compound in the perfusate by 3 min,"isolated rat heart [6]; 0.5 μM [3H]-dA, in the presence of I-H",completely lost
same,phosphorylated [3H]-dA products in heart,"isolated rat heart [5]; 0.5 μM [3H]-dA, I-H and EHNA in the perfusate, 60 min",0.48 ± 0.08 pmol/mg wet heart
Nc1ncnc2c1ncn2[C@H]1C[C@H](O)[C@@H](COP(=O)(O)O)O1 [dAMP],time to complete conversion to [3H]-dATP,adenylate kinase; 1 μM,≤ 10 min
Nc1nc2c(ncn2[C@H]2C[C@H](O)[C@@H](COP(=O)(O)O)O2)c(=O)[nH]1 [dGMP],"plateau, complete conversion of [3H]-dGMP to [3H]-dGTP",heart mitochondria; 1 μM,123 ± 1 pmol/mg protein
same,conversion to [3H]-dGTP at the 30-min time point,heart mitochondria; 1 μM precursor,106 ± 4 pmol/mg protein
same,conversion of dGMP to dGTP faster than conversion of dG to dGTP,heart mitochondria; 30 min,4.6 times
Nc1nc2c(ncn2[C@H]2CC[C@@H](CO)O2)c(=O)[nH]1 [dideoxyguanosine],inhibition of the phosphorylation of dA and dG,[8],ETV was shown to be the only dG/dA analog of the eight tested that showed significant inhibition
Nc1nc(O)c2ncn(COC(CO)CO)c2n1 [ganciclovir],inhibition of the phosphorylation of dA and dG,[8],ETV was shown to be the only dG/dA analog of the eight tested that showed significant inhibition
Nc1nc(=O)c2ncn([C@@H]3C[C@H](CO)[C@H]3CO)c2[nH]1 [lobucavir],inhibition of the phosphorylation of dA and dG,[8],ETV was shown to be the only dG/dA analog of the eight tested that showed significant inhibition
Nc1nc2c(ncn2CCC(CO)CO)c(=O)[nH]1 [penciclovir],inhibition of the phosphorylation of dA and dG,[8],ETV was shown to be the only dG/dA analog of the eight tested that showed significant inhibition
C[C@H](Cn1cnc2c(N)ncnc21)OCP(=O)(O)O [tenofovir],inhibition of the phosphorylation of dA and dG,[8],ETV was shown to be the only dG/dA analog of the eight tested that showed significant inhibition
